Measurements as given in PMC10066365, “Nemacol is a small molecule inhibitor of C. elegans vesicular acetylcholine transporter with anthelmintic potential” (Nature Communications, 2023).
Several values for one entry are separate records, joined by “and”; a condition that tells them apart may be missing. Identical values can stand only once. Like-named read-outs stand apart in the source and are kept apart here.

What was measured:
[1] = tested on: Pristionchus pacificus; test: Pristionchus pacificus motor disruption dose-response on solid media, 1 h; conditions: for mean % any phene (coiled, jerky-Unc or paralyzed): Pristionchus pacificus young adults; for mean % any phene (coiled, jerky-Unc or paralyzed) / mean % any phene: mean of three biological replicates; for EC50: Pristionchus pacificus, 1 h, read-out: P. pacificus motor disruption EC50; for rep 1 atypical locomotion / rep 1 coiled / rep 1 no phene / rep 1 paralyzed / rep 2 atypical locomotion / rep 2 coiled / rep 2 no phene / rep 2 paralyzed / rep 3 atypical locomotion / rep 3 coiled / rep 3 no phene / rep 3 paralyzed: count of 20 animals per trial, one hour; for mean % any phene: any phenotype (coiled, jerky-Unc or paralyzed) at one hour
[2] = target: T1, rat VAChT (Rattus norvegicus, UniProt Q62666); test: [3H]Vesamicol competitive radioligand binding, PC12 cells expressing ratVAChT
T1 construct: expressed in transfected cells; host or cells: rat PC12 (PC12 A123.7) cells, stably transfected; shared by Dr. Ali Roghani (Texas Tech University)
T1 sequence (Q62666 1-530): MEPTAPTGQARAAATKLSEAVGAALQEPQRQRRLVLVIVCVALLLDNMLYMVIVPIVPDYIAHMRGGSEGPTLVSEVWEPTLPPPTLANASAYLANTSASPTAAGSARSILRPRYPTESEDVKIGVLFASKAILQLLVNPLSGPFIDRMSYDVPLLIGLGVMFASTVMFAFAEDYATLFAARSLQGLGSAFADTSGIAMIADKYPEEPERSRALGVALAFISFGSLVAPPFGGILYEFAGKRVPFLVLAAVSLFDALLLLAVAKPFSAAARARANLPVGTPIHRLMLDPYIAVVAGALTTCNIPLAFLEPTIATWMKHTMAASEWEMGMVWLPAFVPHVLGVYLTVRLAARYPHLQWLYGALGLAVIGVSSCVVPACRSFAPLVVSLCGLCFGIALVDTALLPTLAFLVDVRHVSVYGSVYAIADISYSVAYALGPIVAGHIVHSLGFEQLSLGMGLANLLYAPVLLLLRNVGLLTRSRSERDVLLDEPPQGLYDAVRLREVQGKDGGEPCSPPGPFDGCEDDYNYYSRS

[3] = tested on: C. elegans; test: C. elegans motor phenotype scoring on solid media (Punc/jerky-unc, coiled, paralyzed), wild-type young adults; assay type: in vivo, Caenorhabditis elegans; conditions: for any phene (mean % fraction of young adults exhibiting any phenotype: coiled, jerky-Unc or paralyzed) / atypical locomotion (number of animals) / coiled (number of animals) / no phene (number of animals) / paralyzed (number of animals) / any phene: mean % fraction of young adults exhibiting any phenotype (coiled, jerky-Unc or paralyzed): one hour; for any phene (mean % fraction of young adults exhibiting any phenotype: coiled, jerky-Unc or paralyzed) / any phene: mean % fraction of young adults exhibiting any phenotype (coiled, jerky-Unc or paralyzed): mean of three biological replicates; for EC50: Caenorhabditis elegans, any motor phenotype after 1 h on solid media, ± 95% CI, read-out: C. elegans - motor disruption EC50; for atypical locomotion (number of animals) / coiled (number of animals) / no phene (number of animals) / paralyzed (number of animals): young adults, 20 animals per trial, single technical replicate
[4] = tested on: Dirofilaria immitis L3/L4; test: Dirofilaria immitis L3/L4 motility assay (DiroImager, 72 h); conditions: Dirofilaria immitis L4
[5] = tested on: Dirofilaria immitis microfilariae; test: Dirofilaria immitis microfilariae immobility assay (DiroImager, 72 h); conditions: Dirofilaria immitis microfilariae
Summary of the method: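 Motility read after 72 h drug exposure with an image-based high-throughput plate imager, 1% DMSO medium serving as negative control. Missouri-isolate microfilariae, roughly 250 per well, freshly purified and cultured in supplemented RPMI 1640.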

[6] = conc 3.75, observed at one hour
[7] = [3H]Vesamicol binding, PC12, experiment 1, read-out: expt 1 Ki (M) vs. rat VAChT (PC12)
[8] = [3H]Vesamicol binding, PC12, experiment 2, read-out: expt 2 Ki (M) vs. rat VAChT (PC12)
[9] = [3H]Vesamicol binding, rat VAChT (PC12), mean of 2-3 experiments, read-out: mean Ki
[10] = 3.75uM, third c14 line of each analog

Q: How did the “mean % any phene (coiled, jerky-Unc or paralyzed)” value [1, 6] turn out when Cc1ccc(N2CCN(CC3CC4C=CC3C4)CC2)cc1 (stereo not shown) [Nemacol-43] was run?
A: 0%

Q: And the “mean % any phene (coiled, jerky-Unc or paralyzed)” value ([1]; conc 15, observed at one hour)?
A: 20.8333%

Q: And the “mean % any phene (coiled, jerky-Unc or paralyzed)” value ([1]; conc 60, observed at one hour)?
A: 76.4035%

Q: And the EC50 [1]?
A: 31.5 ± 4.9 µM

Q: And the Ki [2, 7]?
A: 1.91e-07 M

Q: And the Ki [2, 8]?
A: 1.26e-07 M

Q: And the Ki [2, 9]?
A: 1.59e-07 M

Q: What about the “any phene (mean % fraction of young adults exhibiting any phenotype: coiled, jerky-Unc or paralyzed)” value [3, 10] of the same compound?
A: 33.7698%

Q: And the “any phene (mean % fraction of young adults exhibiting any phenotype: coiled, jerky-Unc or paralyzed)” value ([3]; 15uM, second c14 line of each analog)?
A: 100%

Q: What about the “any phene (mean % fraction of young adults exhibiting any phenotype: coiled, jerky-Unc or paralyzed)” value ([3]; 60uM, first c14 line of each analog) of the same compound?
A: 100%

Q: What about the EC50 [3] of the same compound?
A: 3900 nM

Q: What about the “% effect (motility), DIROIM L4” value ([4]; 2 µM) of the same compound?
A: 6%

Q: What about the “% effect (motility), DIROIM L4” value ([4]; 10 µM) of the same compound?
A: 5%

Q: And the “% effect (motility), DIROIM L4” value ([4]; 50 µM)?
A: 20%

Q: And the “% effect (motility), DIROIM MF” value ([5]; 0.016 µM)?
A: 0%

Q: And the “% effect (motility), DIROIM MF” value ([5]; 0.08 µM)?
A: 0%

Q: What about the “% effect (motility), DIROIM MF” value ([5]; 0.4 µM) of the same compound?
A: 0%

Q: What about the “% effect (motility), DIROIM MF” value ([5]; 2 µM) of the same compound?
A: 0%

Q: And the “% effect (motility), DIROIM MF” value ([5]; 10 µM)?
A: 0%

Q: Clc1ccc(N2CCN(CC3CC4C=CC3C4)CC2)cc1 (stereo not shown) [Nemacol-46] was tested. Which “mean % any phene (coiled, jerky-Unc or paralyzed)” value [1, 6] did it give?
A: 41.6667%

Q: What about the “mean % any phene (coiled, jerky-Unc or paralyzed)” value ([1]; conc 15, observed at one hour) of the same compound?
A: 58.3333%

Q: What about the “mean % any phene (coiled, jerky-Unc or paralyzed)” value ([1]; conc 60, observed at one hour) of the same compound?
A: 84.1667%

Q: And the EC50 [1]?
A: 7 ± 2.4 µM

Q: What about the “rep 1 atypical locomotion” value ([1]; conc 3.75) of the same compound?
A: 0

Q: And the “rep 1 coiled” value ([1]; conc 3.75)?
A: 0

Q: And the “rep 1 no phene” value ([1]; conc 3.75)?
A: 20

Q: What about the “rep 1 paralyzed” value ([1]; conc 3.75) of the same compound?
A: 0

Q: And the “rep 2 atypical locomotion” value ([1]; conc 3.75)?
A: 4

Q: And the “rep 2 coiled” value ([1]; conc 3.75)?
A: 0

Q: And the “rep 2 no phene” value ([1]; conc 3.75)?
A: 16

Q: What about the “rep 2 paralyzed” value ([1]; conc 3.75) of the same compound?
A: 0

Q: What about the “rep 1 atypical locomotion” value ([1]; conc 15) of the same compound?
A: 11

Q: What about the “rep 1 coiled” value ([1]; conc 15) of the same compound?
A: 4

Q: What about the “rep 1 no phene” value ([1]; conc 15) of the same compound?
A: 4

Q: And the “rep 1 paralyzed” value ([1]; conc 15)?
A: 1

Q: What about the “rep 2 atypical locomotion” value ([1]; conc 15) of the same compound?
A: 0

Q: What about the “rep 2 coiled” value ([1]; conc 15) of the same compound?
A: 8

Q: What about the “rep 2 no phene” value ([1]; conc 15) of the same compound?
A: 0

Q: And the “rep 2 paralyzed” value ([1]; conc 15)?
A: 12

Q: And the “rep 1 atypical locomotion” value ([1]; conc 60)?
A: 4

Q: What about the “rep 1 coiled” value ([1]; conc 60) of the same compound?
A: 6

Q: What about the “rep 1 no phene” value ([1]; conc 60) of the same compound?
A: 0

Q: What about the “rep 1 paralyzed” value ([1]; conc 60) of the same compound?
A: 10

Q: What about the “rep 2 atypical locomotion” value ([1]; conc 60) of the same compound?
A: 0

Q: What about the “rep 2 coiled” value ([1]; conc 60) of the same compound?
A: 8

Q: And the “rep 2 no phene” value ([1]; conc 60)?
A: 0

Q: What about the “rep 2 paralyzed” value ([1]; conc 60) of the same compound?
A: 12

Q: What about the Ki [2, 7] of the same compound?
A: 9.16e-08 M

Q: What about the Ki [2, 8] of the same compound?
A: 7.54e-08 M

Q: And the Ki [2, 9]?
A: 8.35e-08 M

Q: And the “any phene (mean % fraction of young adults exhibiting any phenotype: coiled, jerky-Unc or paralyzed)” value [3, 10]?
A: 89.1667%

Q: And the EC50 [3]?
A: 2300 nM

Q: What about the “% effect (motility), DIROIM L4” value ([4]; 2 µM) of the same compound?
A: 0%

Q: And the “% effect (motility), DIROIM L4” value ([4]; 10 µM)?
A: 5%

Q: What about the “% effect (motility), DIROIM L4” value ([4]; 50 µM) of the same compound?
A: 25%

Q: What about the “% effect (motility), DIROIM MF” value ([5]; 0.016 µM) of the same compound?
A: 0%

Q: And the “% effect (motility), DIROIM MF” value ([5]; 0.08 µM)?
A: 0%

Q: What about the “% effect (motility), DIROIM MF” value ([5]; 0.4 µM) of the same compound?
A: 0%

Q: What about the “% effect (motility), DIROIM MF” value ([5]; 2 µM) of the same compound?
A: 0%

Q: What about the “% effect (motility), DIROIM MF” value ([5]; 10 µM) of the same compound?
A: 0%

Q: Which results are given for CC1CCC(N2CCN(c3ccccc3)CC2)CC1 (stereo not shown) [Nemacol-50]?
A: EC50 [1]: 49.2 µM; mean % any phene ([1]; conc 3.75): 0%; rep 1 atypical locomotion ([1]; conc 3.75): 0; rep 1 coiled ([1]; conc 3.75): 0; rep 1 no phene ([1]; conc 3.75): 20; rep 1 paralyzed ([1]; conc 3.75): 0; rep 2 atypical locomotion ([1]; conc 3.75): 0; rep 2 coiled ([1]; conc 3.75): 0; rep 2 no phene ([1]; conc 3.75): 20; rep 2 paralyzed ([1]; conc 3.75): 0; rep 3 atypical locomotion ([1]; conc 3.75): 0; rep 3 coiled ([1]; conc 3.75): 0; rep 3 no phene ([1]; conc 3.75): 20; rep 3 paralyzed ([1]; conc 3.75): 0; mean % any phene ([1]; conc 15): 0%; rep 1 atypical locomotion ([1]; conc 15): 0; rep 1 coiled ([1]; conc 15): 0; rep 1 no phene ([1]; conc 15): 20; rep 1 paralyzed ([1]; conc 15): 0; rep 2 atypical locomotion ([1]; conc 15): 0; rep 2 coiled ([1]; conc 15): 0; rep 2 no phene ([1]; conc 15): 20; rep 2 paralyzed ([1]; conc 15): 0; rep 3 atypical locomotion ([1]; conc 15): 0; rep 3 coiled ([1]; conc 15): 0; rep 3 no phene ([1]; conc 15): 20; rep 3 paralyzed ([1]; conc 15): 0; mean % any phene ([1]; conc 60): 98.3333%; rep 1 atypical locomotion ([1]; conc 60): 9 and 5; rep 1 coiled ([1]; conc 60): 4 and 2; rep 1 no phene ([1]; conc 60): 0; rep 1 paralyzed ([1]; conc 60): 7 and 13; rep 2 atypical locomotion ([1]; conc 60): 7 and 10; rep 2 coiled ([1]; conc 60): 4 and 2; rep 2 no phene ([1]; conc 60): 0; rep 2 paralyzed ([1]; conc 60): 9 and 8; rep 3 atypical locomotion ([1]; conc 60): 11 and 13; rep 3 paralyzed ([1]; conc 60): 6 and 4; Ki [2, 7]: 1.82e-06 M; Ki [2, 8]: 2.05e-06 M; Ki ([2]; [3H]Vesamicol binding, PC12, third experiment column (date expt 3), read-out: expt 2 Ki (M) vs. rat VAChT (PC12)): 1.95e-06 M; Ki [2, 9]: 1.94e-06 M; Ki ([2]; [3H]Vesamicol displacement, mean, read-out: ratVAChT Ki): 1.94e-06 M; atypical locomotion (number of animals) ([3]; 3.75uM): 8 and 14 and 7 and 18 and 16; coiled (number of animals) ([3]; 3.75uM): 0 and 1; no phene (number of animals) ([3]; 3.75uM): 11 and 5 and 12 and 13 and 2 and 4; paralyzed (number of animals) ([3]; 3.75uM): 1 and 0; any phene: mean % fraction of young adults exhibiting any phenotype (coiled, jerky-Unc or paralyzed) ([3]; 3.75uM): 60.8333%; atypical locomotion (number of animals) ([3]; 15uM): 10 and 12 and 11 and 17 and 7 and 5; coiled (number of animals) ([3]; 15uM): 1 and 0 and 7 and 3 and 4; no phene (number of animals) ([3]; 15uM): 2 and 0; paralyzed (number of animals) ([3]; 15uM): 7 and 8 and 0 and 9 and 12; any phene: mean % fraction of young adults exhibiting any phenotype (coiled, jerky-Unc or paralyzed) ([3]; 15uM): 96.6667%; atypical locomotion (number of animals) ([3]; 60uM): 1 and 3 and 0 and 6 and 5 and 2; coiled (number of animals) ([3]; 60uM): 8 and 11 and 14 and 5 and 6; no phene (number of animals) ([3]; 60uM): 1 and 0; paralyzed (number of animals) ([3]; 60uM): 10 and 6 and 12; any phene: mean % fraction of young adults exhibiting any phenotype (coiled, jerky-Unc or paralyzed) ([3]; 60uM): 99.1667%; EC50 [3]: 3000 ± 1300 nM; % effect (motility), DIROIM L4 ([4]; 2 µM): 0%; % effect (motility), DIROIM L4 ([4]; 10 µM): 0%; % effect (motility), DIROIM L4 ([4]; 50 µM): 5%; % effect (motility), DIROIM MF ([5]; 0.016 µM): 0%; % effect (motility), DIROIM MF ([5]; 0.08 µM): 0%; % effect (motility), DIROIM MF ([5]; 0.4 µM): 0%; % effect (motility), DIROIM MF ([5]; 2 µM): 0%; % effect (motility), DIROIM MF ([5]; 10 µM): 0%
